Measured values reported in ChEMBL document CHEMBL1671847, “Hybrid dual aromatase-steroid sulfatase inhibitors with exquisite picomolar inhibitory activity” (ACS Med Chem Lett, 2011).

Target: T1, Aromatase (Homo sapiens, UniProt P11511)
T1 sequence (P11511 whole entry): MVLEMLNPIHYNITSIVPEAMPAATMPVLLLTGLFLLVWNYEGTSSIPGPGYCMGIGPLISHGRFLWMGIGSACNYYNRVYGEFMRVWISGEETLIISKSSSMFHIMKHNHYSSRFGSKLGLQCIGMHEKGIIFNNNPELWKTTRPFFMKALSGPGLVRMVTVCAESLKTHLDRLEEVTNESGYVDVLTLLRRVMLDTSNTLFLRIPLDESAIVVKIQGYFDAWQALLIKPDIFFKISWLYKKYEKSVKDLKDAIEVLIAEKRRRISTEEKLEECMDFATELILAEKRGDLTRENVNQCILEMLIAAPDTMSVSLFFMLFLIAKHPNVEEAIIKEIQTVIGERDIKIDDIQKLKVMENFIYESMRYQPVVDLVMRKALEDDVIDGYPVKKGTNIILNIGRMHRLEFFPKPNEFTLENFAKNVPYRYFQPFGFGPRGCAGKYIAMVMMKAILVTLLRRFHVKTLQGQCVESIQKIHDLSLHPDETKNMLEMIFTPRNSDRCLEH
Experiment: Inhibition of aromatase in human JEG-3 cells using [1beta-3H]androstenedione after 1 hr by scintillation spectrometry
Format: cell-based

IC50: 0.21 nM
SMILES: N#Cc1ccc(N(Cc2ccc(OS(N)(=O)=O)cc2)n2cnnc2)cc1-c1ccccc1
